The values below are quoted from earlier work in patent US9907782B2, “Treatment or prevention of seborrheic keratosis using artemisinin and derivatives thereof” (EPIPHARM AG, priority 2014, dated 2018).

Series [1] concerns seborrheic keratosis lesions. As to conditions: for clinical improvement: once daily application, calcipotriene 0.005% ointment, imiquimod 5% cream.
In series [2] the test system is seborrheic keratosis lesions.
The test system of series [3] is psoriasis. As to conditions: topical; three psoriasis patients.
Series [4] deals with T1, tyrosinase (Homo sapiens, UniProt P14679).
T1 sequence (P14679 19-529): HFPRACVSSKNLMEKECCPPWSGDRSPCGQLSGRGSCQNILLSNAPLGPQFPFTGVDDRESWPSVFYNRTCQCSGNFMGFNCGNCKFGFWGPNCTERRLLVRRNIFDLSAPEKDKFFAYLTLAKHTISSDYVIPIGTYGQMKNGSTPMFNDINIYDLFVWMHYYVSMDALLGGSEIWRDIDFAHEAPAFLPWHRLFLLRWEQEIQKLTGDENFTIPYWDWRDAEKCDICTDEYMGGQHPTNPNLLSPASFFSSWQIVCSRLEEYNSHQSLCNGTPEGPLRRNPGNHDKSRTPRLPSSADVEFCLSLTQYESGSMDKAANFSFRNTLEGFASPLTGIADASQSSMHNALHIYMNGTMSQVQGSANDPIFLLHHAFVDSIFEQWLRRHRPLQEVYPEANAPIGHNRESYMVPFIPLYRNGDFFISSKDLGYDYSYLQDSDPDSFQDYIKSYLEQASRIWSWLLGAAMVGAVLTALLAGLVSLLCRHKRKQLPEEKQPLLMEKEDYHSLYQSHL
To be noted: according to US 2010/0061948 A1, allegedly.

In series [5] the test system is melanin synthesis. To be noted: according to US 2010/0061948 A1, allegedly.

As to `CCOC(=O)c1ccc(C#Cc2ccc3c(c2)C(C)(C)CCS3)nc1` [tazarotene], in series [1] (bi-daily application, tazarotene 0.1% cream), the “clinical and histological improvement” value is reported as “less than half the patients”. Besides, in series [1] (tazarotene 0.1% cream), the clinical improvement result was “did not result in any clinical improvement”. Moreover, in series [1] (topical tazarotene), the “patients reporting burning, pruritus and redness (irritation)” value was “⅔”.

Take `NC(N)=O` [urea]: the side effects result in series [2] (50% urea under occlusion) was “no side effects were reported”. For the same molecule, the “thickness of seborrheic keratosis lesions” value in series [2] (50% urea under occlusion and digitally scraping the lesions, lesions did persist albeit with reduced size) is “some reduction of the thickness”.

In the case of `C[C@H]1[C@H](OC(=O)CCC(=O)O)O[C@@H]2O[C@@]3(C)CC[C@H]4[C@H](C)CC[C@@H]1[C@@]24OO3` [artesunate], the solubility in water entry is listed as “more water-soluble”.

Take `C[C@@H]1CC[C@H]2[C@@H](C)C(=O)O[C@@H]3O[C@@]4(C)CC[C@@H]1[C@]32OO4` [artemisinin]: the solubility in water result was “very hard to dissolve in water”. In addition, in series [3], the treatment of psoriasis entry is reported as “successfully”. Moreover, the tyrosinase activity result in series [4] was “suppressed”. For the same molecule, the melanin synthesis entry in series [5] is “suppressed”.

`C=C1/C(=C\C=C2/CCC[C@]3(C)[C@@H]([C@H](C)/C=C/[C@@H](O)C4CC4)CC[C@@H]23)C[C@@H](O)C[C@@H]1O` [calcipotriene]: the clinical improvement result in series [1] (tazarotene 0.1% cream) is reported as “did not result in any clinical improvement”.

As to `C[C@H]1[C@@H](O)O[C@@H]2O[C@@]3(C)CC[C@H]4[C@H](C)CC[C@@H]1[C@@]24OO3` [dihydroartemisinin], the solubility in water result is on record as “more water-soluble”.

With `CC(C)Cn1cnc2c(N)nc3ccccc3c21` [imiquimod], the clinical improvement result in series [1] (tazarotene 0.1% cream) is “did not result in any clinical improvement”.
